Laboratory results: article PMC12081497, “Design, synthesis, and anti-breast cancer activity evaluation of novel 3-cyanopyridine derivatives as PIM-1 inhibitors” (Molecular Diversity, 2024)
Entries after “also recorded” stand apart in the source; their conditions may differ. Read-outs that look alike come from different tables or passages of the source.

How the values were obtained:
[1] = test system: MCF-7 human cancer cell line; assay: In vitro anti-proliferative MTT assay; assay type: cell-based; conditions: MTT, MCF-7, 48 h treatment, read-out: Cytotoxicity IC50, SD (±), MCF7
Method: In the present study, all synthesized cyanopyridine hybrids were subjected to in vitro cytotoxicity testing using the MTT assay method against MCF-7 human cancer.
All cell lines were maintained in RPMI1640 medium containing 10% FBS at 37 °C in 5% CO2 humidified incubator. Cell proliferation assay was determined by the MTT (3-[4,5-dimethyl-2-thiazolyl]-2,5- diphenyl-2H-tetrazolium bromide) method. Briefly, cells were plated in triplicate wells (3–5 × 10^4 cells/well) of 96-well flat-bottomed plates and incubated overnight prior to drug exposure and then treated with different concentrations of the tested compounds for 48 h. After that, 20 μL of MTT reagent at a final concentration of 0.5 mg/mL was added to each well. Cells were then incubated for 2 h with MTT, after which 100 μL of DMSO solution was added to dissolve the formazan salt resulting from the reduction of MTT and the absorbance was read at 570 nm using an automatic plate reader. The IC50 values were calculated according to inhibition ratios from three independent experiments.

PIM-1 kinase = target: T1, PIM-1 kinase (Homo sapiens, UniProt P11309); assay: PIM-1 kinase inhibition assay (Promega PIM-1 kinase assay kit, ADP-Glo); assay type: biochemical; conditions: concentrations 10, 1, 0.1 and 0.01 µM, read-out: PIM1-Kinase IC50
T1 construct: purchased Promega V4032
T1 sequence (P11309 whole entry): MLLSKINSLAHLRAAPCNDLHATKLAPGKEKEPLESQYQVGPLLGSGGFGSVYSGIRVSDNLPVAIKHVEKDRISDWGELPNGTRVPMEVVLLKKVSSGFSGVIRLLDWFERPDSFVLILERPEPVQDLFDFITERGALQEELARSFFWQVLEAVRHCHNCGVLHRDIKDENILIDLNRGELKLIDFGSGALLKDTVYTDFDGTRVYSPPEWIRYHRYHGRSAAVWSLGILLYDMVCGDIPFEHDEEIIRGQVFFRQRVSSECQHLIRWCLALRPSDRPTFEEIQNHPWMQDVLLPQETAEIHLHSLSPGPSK

MCF-7 cells [2] = assay: Flow cytometric cell cycle analysis; assay type: cell-based, human; conditions: for Cell cycle comment (phase of arrest): MCF-7, 24 h
Method: The cell cycle encompasses four distinct phases: G1 phase, S phase (synthesis), G2 phase, and M phase. During G1, cellular amplification and preparation for DNA replication take place. The S phase involves DNA replication and chromatid duplication. In the G2 phase, DNA repair and further growth occur. The M phase is characterized by nuclear division. The investigation of the impact of compound 7h on cell cycle progression and the induction of apoptosis in MCF-7 cells. […] Subsequently, the cells were stained with PI/Annexin V and analyzed using flow cytometry (BD FASCCalibur). Upon analyzing the results (Table 3, Fig. 6), it was evident that the percentage of cell accumulation in the S phase increased in MCF-7 cells treated with compound 7h after 24 h of incubation.
Cell cycle analysis MCF-7 cell was seeded into six-well plates at a density of 2 × 10^5 cell per well and incubated for 24 h. The cell was cultured in RPMI 1640 supplemented with fetal bovine serum (FBS, 10%) and incubated at 37 °C and 5% CO2. The medium was removed and replaced with medium (final DMSO concentration, 1% v/v) containing compound 7h (0.283 µM). After incubation for 24 h and 48 h, the cell layer was trypsinized and washed with cold phosphate buffered saline (PBS) and fixed with 70% ethanol. The fixed cells were rinsed with PBS and then stained with the DNA fluorochrome PI in a solution containing Triton X-100 as well as RNase, keep 15 min at 37 °C according to the instruction manual. Then the samples were analyzed with a FACS Caliber flow cytometer (Becton Dickinson & Co., Franklin Lakes, NJ). The number of cells analyzed for each sample was 10,000 [39].

MCF-7 cells [3] = assay: Apoptosis assay, Annexin V/PI flow cytometry; assay type: cell-based, human; conditions: MCF-7, 24 h
Method: Compound 7h was chosen to investigate its abilities in inducing cancer cell apoptosis. Cell cycle analysis of MCF-7 after treatment with compound 7h. To corroborate the ability of the compound to induce apoptosis, cells were stained with Annexin V/PI, incubated for 24 h, and analyzed.
The MCF-7 was treated with compound 7h for 24 h. After treatment, the cells were suspended in 0.5 mL of PBS, collected by centrifugation, and fixed in ice-cold 70% (v/ v) ethanol, centrifuged the ethanol-suspended cells for 5 min, suspended in 5 mL PBS and centrifuged for 5 min, re-suspended with 1 mL PI staining solution (0.1 mg/ml RNase) + PE Annexin V (component no. 51-65875X) and kept in dark at 37 °C for 10 min, finally analyzed by flow cytometry using FACS caliber (Becton Dickinson). The cell cycle distributions were calculated using Phoenix Flow Systems and Verity Software House.

Compound: COc1cc(-c2cc(-c3cccnc3)[nH]c(=O)c2C#N)ccc1OCC(=O)Nc1ccccc1 [7h, 2-(4-(3-Cyano-2-oxo-6-(pyridin-3-yl)-1,2-dihydropyridin-4-yl)-2-methoxyphenoxy)-N-phenylacetamide]
- IC50 ([1]; Homo sapiens, MCF7, 48 h): 1890 nM
- IC50 [1]: 1890 ± 80 nM
- IC50 (PIM-1 kinase): 281 ± 12 nM
- Cell cycle comment (phase of arrest) (MCF-7 cells [2]): arrested the tumor cells at the S phase; also recorded: cell cycle arrest at the S phase
- Cell cycle comment (phase of arrest) (MCF-7 cells [2]; listed as 7 h): Cell growth arrest@ S
- DNA content %G2/M (MCF-7 cells [2]; MCF-7, IC50 concentration of 7h, 24 h, control 13.14): 12.11%
- DNA content %S (MCF-7 cells [2]; MCF-7, IC50 concentration of 7h, 24 h, control 25.83): 33.61%
- DNA content %G0-G1 (MCF-7 cells [2]; MCF-7, IC50 concentration of 7h, 24 h, control 61.03): 54.28%
- Apoptosis Late (MCF-7 cells [3]; control 0.27): 22.81%
- Apoptosis Early (MCF-7 cells [3]; control 0.41): 15.42%
- Necrosis (MCF-7 cells [3]; control 1.61): 3.95%
- Apoptosis Total (MCF-7 cells [3]; control 2.29): 42.18%
- melting point: 295 to 297 °C
